ChEMBL document CHEMBL1212782, “Mutasynthesis of lincomycin derivatives with activity against drug-resistant staphylococci” (2010)
Converted amounts (≈) assume the structure as drawn.

Experiments:
[1] = system: Staphylococcus epidermidis; test: Antimicrobial activity against erythromycin resistant Staphylococcus epidermidis isolate 129OV harboring msrA gene incubated at 37 degC for 24 hrs by agar dilution method
Staphylococcus aureus [2] = test: Antimicrobial activity against Staphylococcus aureus isolate CIP 107907 harboring vgaA gene incubated at 37 degC for 24 hrs by agar dilution method; conditions: isolate CIP 107907, 24 h
[3] = system: Staphylococcus epidermidis; test: Antimicrobial activity against erythromycin, lincomycin, clindamycin resistant Staphylococcus epidermidis isolate 44KR harboring ermC gene incubated at 37 degC for 24 hrs by agar dilution method
[4] = system: Staphylococcus haemolyticus; test: Antimicrobial activity against erythromycin, lincomycin, clindamycin resistant Staphylococcus haemolyticus isolate 134PL harboring ermC gene incubated at 37 degC for 24 hrs by agar dilution method
[5] = system: Staphylococcus haemolyticus; test: Antimicrobial activity against lincomycin, clindamycin resistant Staphylococcus haemolyticus isolate 29OL harboring vgaALC gene incubated at 37 degC for 24 hrs by agar dilution method
[6] = system: Staphylococcus epidermidis; test: Antimicrobial activity against erythromycin, lincomycin, clindamycin resistant Staphylococcus epidermidis isolate 1036UL harboring ermC vgaALC gene incubated at 37 degC for 24 hrs by agar dilution method
[7] = system: Staphylococcus epidermidis; test: Antimicrobial activity against erythromycin, inducible lincomycin, inducible clindamycin resistant Staphylococcus epidermidis isolate 32PL harboring ermC gene incubated at 37 degC for 24 hrs by agar dilution method
[8] = system: Staphylococcus haemolyticus; test: Antimicrobial activity against erythromycin, lincomycin, clindamycin resistant Staphylococcus haemolyticus isolate 65OL harboring ermC vgaALC gene incubated at 37 degC for 24 hrs by agar dilution method
[9] = system: Staphylococcus haemolyticus; test: Antimicrobial activity against erythromycin, lincomycin resistant Staphylococcus haemolyticus isolate 113OL harboring msrA lnuA gene incubated at 37 degC for 24 hrs by agar dilution method
[10] = system: Staphylococcus epidermidis; test: Antimicrobial activity against lincomycin resistant Staphylococcus epidermidis isolate 102OL harboring lnuA gene incubated at 37 degC for 24 hrs by agar dilution method
Staphylococcus aureus [11] = test: Antimicrobial activity against Staphylococcus aureus ATCC 29213 incubated at 37 degC for 24 hrs by agar dilution method; conditions: ATCC 29213, 24 h
[12] = system: Staphylococcus haemolyticus; test: Antimicrobial activity against erythromycin resistant Staphylococcus haemolyticus isolate 202BB harboring msrA gene incubated at 37 degC for 24 hrs by agar dilution method
[13] = system: Staphylococcus haemolyticus; test: Antimicrobial activity against lincomycin resistant Staphylococcus haemolyticus isolate 123PL harboring lnuA gene incubated at 37 degC for 24 hrs by agar dilution method
[14] = system: Staphylococcus epidermidis; test: Antimicrobial activity against erythromycin, lincomycin, clindamycin resistant Staphylococcus epidermidis isolate 32OL harboring msrA lnuA vgaALC gene incubated at 37 degC for 24 hrs by agar dilution method
[15] = system: Staphylococcus haemolyticus; test: Antimicrobial activity against erythromycin, inducible lincomycin, inducible clindamycin resistant Staphylococcus haemolyticus isolate 31UL harboring ermC gene incubated at 37 degC for 24 hrs by agar dilution method

| Compound | MIC [1] [µg/mL] | MIC (Staphylococcus aureus [2]) [µg/mL] | MIC [3] [µg/mL] | MIC [4] [µg/mL] | MIC [5] [µg/mL] | MIC [6] [µg/mL] | MIC [7] [µg/mL] | MIC [8] [µg/mL] | MIC [9] [µg/mL] | MIC [10] [µg/mL] | MIC (Staphylococcus aureus [11]) [µg/mL] | MIC [12] [µg/mL] | MIC [13] [µg/mL] | MIC [14] [µg/mL] | MIC [15] [µg/mL] |
| --- | --- | --- | --- | --- | --- | --- | --- | --- | --- | --- | --- | --- | --- | --- | --- |
| CCC[C@@H]1C[C@@H](C(=O)N[C@@H]([C@H]2O[C@H](SC)[C@H](O)[C@@H](O)[C@H]2O)[C@@H](C)O)N(C)C1 [LINCOMYCIN] | 1 (≈ 2.46 µM) | 4 (≈ 9.84 µM) | 64 (≈ 157 µM) | 32 (≈ 78.7 µM) | 64 (≈ 157 µM) | > 256 | 1 (≈ 2.46 µM) | 128 (≈ 315 µM) | 128 (≈ 315 µM) | 64 (≈ 157 µM) | 1 (≈ 2.46 µM) | 1 (≈ 2.46 µM) | 128 (≈ 315 µM) | > 256 | 1 (≈ 2.46 µM) |
| CCC[C@@H]1C[C@@H](C(=O)N[C@@H]([C@H]2O[C@H](SC)[C@H](O)[C@@H](O)[C@H]2O)[C@H](C)Cl)N(C)C1 [CLINDAMYCIN] | 0.25 (≈ 0.588 µM) | 0.25 (≈ 0.588 µM) | > 16 | > 16 | 16 (≈ 37.6 µM) | > 16 | 0.125 (≈ 0.294 µM) | 4 (≈ 9.41 µM) | 1 (≈ 2.35 µM) | 1 (≈ 2.35 µM) | 0.125 (≈ 0.294 µM) | 0.125 (≈ 0.294 µM) | 2 (≈ 4.71 µM) | 16 (≈ 37.6 µM) | 0.5 (≈ 1.18 µM) |
| CCCCC[C@@H]1C[C@@H](C(=O)N[C@@H]([C@H]2O[C@H](SC)[C@H](O)[C@@H](O)[C@H]2O)[C@@H](C)O)N(C)C1 | 0.25 (≈ 0.575 µM) | 0.5 (≈ 1.15 µM) | 64 (≈ 147 µM) | 32 (≈ 73.6 µM) | 32 (≈ 73.6 µM) | 64 (≈ 147 µM) | 0.25 (≈ 0.575 µM) | 128 (≈ 295 µM) | 8 (≈ 18.4 µM) | 2 (≈ 4.6 µM) | 0.25 (≈ 0.575 µM) | 0.25 (≈ 0.575 µM) | 8 (≈ 18.4 µM) | 64 (≈ 147 µM) | 0.5 (≈ 1.15 µM) |
